Broadly, the mass density is the mass of a sample divided by its volume. As a reminder, the refractive index is a measure of how strongly the sample bends light.

The nature of data set [1]: Boiling temperature at pressure P. The following applies: Liquid, Distillation.
For data set [2] the following is noted: 101.33 kPa, Liquid.
A short description of data set [3]: refractive index (Na D-line) (dimensionless). To be noted: 293.15 K; 101.33 kPa; Liquid; Standard Abbe refractometry.

Each structure is given as a SMILES string. Numbers after ± are expanded uncertainties.

As for `COC(=O)CCC(=O)OC` [dimethyl 1,4-butanedioate], the “Boiling temperature at pressure P” value in data set [1] (101.33 kPa) was found to be 196.1 ± 0.2 °C. Also, the mass density in data set [2] (293.15 K) came out at 1119.13 ± 1.5 kg/m3. In addition, the refractive index in data set [3] is recorded as 1.41969 ± 0.00082.
Turning to `COC(=O)CCCCC(=O)OC` [dimethyl 1,6-hexanedioate], the “Boiling temperature at pressure P” value in data set [1] (1.733 kPa) was found to be 115 ± 1 °C. Besides, the mass density in data set [2] (293.15 K) was 1061.72 ± 0.61 kg/m3. Further, the refractive index in data set [3] came to 1.42825 ± 0.00075.
For the molecule `COC(=O)CCCC(=O)OC` [dimethyl pentanedioate], in data set [1] (101.33 kPa), the “Boiling temperature at pressure P” value came out at 214.2 ± 0.2 °C. Besides, the mass density in data set [2] (293.15 K) is given as 1087.67 ± 0.68 kg/m3. Further, the refractive index in data set [3] is 1.42454 ± 0.00075.
As to `CCC(=O)O` [propanoic acid], the “Boiling temperature at pressure P” value in data set [1] (101.33 kPa) was 141.4 ± 0.2 °C. Besides, in data set [2] (298.15 K), the mass density was 988 ± 0.5 kg/m3. In data set [3], the refractive index is reported as 1.3808 ± 0.00075.

The values are drawn from the NIST ThermoML archive (doi:10.1016/j.jct.2007.02.012).
